Target: T1, hTAS1R1 D147A/rTAS1R3 (UniProt Q7RTX1+Q923K1, D147A)
T1 construct: UniProtKB number Q7RTX1–1); The cDNA coding region of rTAS1R3 was synthesized with optimized-codon usage for human expression; expressed in transfected cells; host or cells: HEK293T/17
T1 sequence (Q7RTX1 21-841 D147A): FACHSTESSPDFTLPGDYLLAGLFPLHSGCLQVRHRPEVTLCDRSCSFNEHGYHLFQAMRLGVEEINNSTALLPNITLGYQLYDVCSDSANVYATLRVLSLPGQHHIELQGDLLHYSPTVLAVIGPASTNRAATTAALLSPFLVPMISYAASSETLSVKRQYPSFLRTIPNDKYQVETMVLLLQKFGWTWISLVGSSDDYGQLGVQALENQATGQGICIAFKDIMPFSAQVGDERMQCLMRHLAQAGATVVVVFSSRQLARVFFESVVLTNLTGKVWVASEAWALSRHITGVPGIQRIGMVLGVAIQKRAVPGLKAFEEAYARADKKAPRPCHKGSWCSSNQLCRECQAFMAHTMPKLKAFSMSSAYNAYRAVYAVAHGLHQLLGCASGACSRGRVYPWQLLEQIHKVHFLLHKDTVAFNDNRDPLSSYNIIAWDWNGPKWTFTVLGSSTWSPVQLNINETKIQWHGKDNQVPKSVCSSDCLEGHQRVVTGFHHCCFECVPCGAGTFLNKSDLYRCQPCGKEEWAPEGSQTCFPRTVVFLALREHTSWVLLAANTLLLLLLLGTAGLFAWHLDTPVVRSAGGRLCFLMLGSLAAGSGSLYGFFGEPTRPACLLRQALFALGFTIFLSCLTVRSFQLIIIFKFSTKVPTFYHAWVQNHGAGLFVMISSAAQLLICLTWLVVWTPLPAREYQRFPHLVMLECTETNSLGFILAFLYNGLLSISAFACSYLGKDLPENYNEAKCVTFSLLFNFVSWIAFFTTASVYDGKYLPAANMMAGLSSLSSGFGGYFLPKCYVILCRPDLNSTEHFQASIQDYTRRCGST
T1 sequence (Q923K1 21-858): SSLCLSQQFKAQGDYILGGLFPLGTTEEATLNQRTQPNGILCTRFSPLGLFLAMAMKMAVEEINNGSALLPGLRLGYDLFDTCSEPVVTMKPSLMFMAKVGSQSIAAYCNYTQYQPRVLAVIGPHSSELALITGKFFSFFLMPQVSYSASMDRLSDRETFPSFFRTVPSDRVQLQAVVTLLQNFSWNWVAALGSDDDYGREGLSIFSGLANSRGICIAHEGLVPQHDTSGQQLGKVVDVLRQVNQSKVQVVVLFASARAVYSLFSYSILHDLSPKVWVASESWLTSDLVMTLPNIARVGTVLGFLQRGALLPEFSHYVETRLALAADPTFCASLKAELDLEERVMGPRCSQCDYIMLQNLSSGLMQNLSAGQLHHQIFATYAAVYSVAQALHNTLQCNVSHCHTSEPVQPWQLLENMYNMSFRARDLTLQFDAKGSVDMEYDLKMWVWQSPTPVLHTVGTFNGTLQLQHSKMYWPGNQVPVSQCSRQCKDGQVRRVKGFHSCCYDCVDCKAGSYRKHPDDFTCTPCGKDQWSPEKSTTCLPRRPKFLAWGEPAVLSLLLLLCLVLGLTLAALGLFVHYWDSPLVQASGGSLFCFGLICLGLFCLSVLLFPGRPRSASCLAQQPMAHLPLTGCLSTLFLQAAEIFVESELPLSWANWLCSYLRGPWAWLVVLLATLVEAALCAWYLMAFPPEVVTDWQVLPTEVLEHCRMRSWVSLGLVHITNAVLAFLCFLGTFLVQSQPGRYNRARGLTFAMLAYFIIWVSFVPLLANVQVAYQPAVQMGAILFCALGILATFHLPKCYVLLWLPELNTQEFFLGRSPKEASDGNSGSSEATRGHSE
Test: Calcium assay, hTAS1R1 mutant co-expressed with rTAS1R3
Assay type: cell-based, human, rat

| SMILES | EC50 [mM] | effect of the added compound (1 mM) on the response to L-Glu (D147A) | response to the agonist alone, vs WT (D147A) |
| --- | --- | --- | --- |
| N[C@@H](CCC(=O)N[C@@H](CS)C(=O)NCC(=O)O)C(=O)O [GSH, γ-L-glutamyl-L-cysteinyl-glycine] | > 30 | did not affect | fully abolished |
| CCCC(CCC)NC(=O)c1ccc2c(c1)OCO2 [S807, N-(heptan-4-yl)benzo[d][1,3]dioxole-5-carboxamide, reference compound] | – | – | strongly affected |
